Assays:
rabbit eye = assay: Rabbit eye irritated with sodium lauryl sulfate (Example 14); type: in vivo; conditions: 10% aqueous solution every hour
mammary tumors = conditions: abdominal DMBA; in drinking water; tumors in control animals; cited from earlier work
Escherichia coli = assay: In vitro antibacterial action; type: cell-based
From the text: (§1) While not as potent or toxic to microbial populations as specific drug agents, by reason of its extremely low host systemic toxicity, methylsulfonylmethane contrasts sharply with present antiinfective therapeutants and methodology. It is doubtful if chemical resistance will develop with infective agents controlled by high, but safe, systemic levels of methylsulfonylmethane.

Staphylococcus aureus = assay: In vitro antibacterial action; type: cell-based
From the text: as §1

Salmonello typhimurium = assay: In vitro antibacterial action; type: cell-based
From the text: as §1

[1] = system: Streptococcus thermophilus; assay: In vitro antibacterial action; type: cell-based
From the text: as §1

Leuconostoc citrovorum = assay: In vitro antibacterial action; type: cell-based
From the text: as §1

eye = assay: Inflammation of the eye following accidental injury (Example 14); type: in vivo, human; conditions: 15% solution in isotonic saline
From the text: A 15% solution of methylsulfonylmethane in isotonic saline was a soothing treatment for the eye following accidental injury due to particulate matter in the eye as dust or pollen.

[2] = system: pain in the mid-back region; assay: Acute pain, comparison with codeine, urinary calculi, subject three (Example 32); type: in vivo, human; conditions: 1.5 g in warm water, oral
Description: Methylsulfonylmethane was compared with codeine for the control of pain in subject three, a person who awakened in the early morning with excruciating pain in the mid-back region, so intense it was difficult to pin-point a specific region. […] Analgesic requirements were 1/2 grain codeine with aspirin every two hours. […] The intense pain returned. The subject was given 1.5 g of methylsulfonylmethane dissolved in 1/2 glass of warm water. At 0.5 hours after taking the methylsulfonylmethane, the pain had essentially disappeared. Methylsulfonylmethane (1.5 g/day) was continued until the afternoon of the third day, when X-ray confirmed that the calculi yet obstructed the ureter. Subject was switched again to codeine with aspirin (1/2 grain×2 hours). […] Methylsulfonylmethane was again administered (1.5 g×4 hours). On day 5 the calculi passed. Recovery was uneventful, requiring neither codeine, methylsulfonylmethane,nor a urinary tract antimicrobial.

[3] = system: pruritis, acne, acne rosacea; assay: Connective tissue and dermatological disorders (Example 13); type: in vivo, human
From the text: Teenagers found methylsulfonylmethane in cola drinks a particularly acceptable satisfactory combination when treating acne. With rosacea, visual improvement was much slower.

[4] = system: scarification of the right cheek pouch; assay: Wound healing of the cheek pouch in hamsters (Example 17); type: in vivo; conditions: 0.1 gm/kg methylsulfonylmethane alone or 100 mg ascorbic acid alone in feed; controls day 4 and 5
Description: Four sets of 5 hamsters were subject to scarification of the right cheek pouch, using standard methodology. One week prior to pouch injury, one set was started on a daily regimen of 0.1 gm/kg of methylsulfonylmethane in the diet of standard hamster feed, a second group was given 0.1 gm/kg of methylsulfonylmethane plus 100 mg of ascorbic acid in the same feed, a third group was given only 100 mg of ascorbic acid in the same feed, and the last group, fed only the feed, was held as control. Daily post-scarification examination was made to determine the rate of injury repair.

mood and depression = assay: Mental normalcy (Example 16); type: in vivo, human
Description: Students reported that while taking methylsulfonylmethane, their ability to concentrate is enhanced. Methylsulfonylmethane therefore is useful in conjunction with CNS therapeutants. The most useful application for methylsulfonylmethane seen to date in the field of mental normalizing is as an aid to the terminally ill, to relieve anxiety and depression.
To a chronically or terminally ill patient suffering from mental depression, administer […] body weight of methylsulfonylmethane daily, in tablet or capsule form, dissolved in water or a cold beverage, or admixed in a cold food. Within 12 hours to 2 days, a significant improvement in the mental attitude of the patient will be noted.

mucous membranes = assay: Binding of labeled 35-S dimethyl sulfone to mucous membranes by autoradiography; conditions: 35-S labeled
From the text: 1. Reducing the adverse response to inhalant allergens. This action may be due entirely or in part to a physical blocking action. Labeled 35-S dimethyl sulfone binds tightly to the surface of mucous membranes and by autoradiography, the membranes appears to be coated, as with a paint.

CS(C)(=O)=O [methylsulfonylmethane]
clearing of irritated eye (rabbit eye): quickly cleared | development of tumors (mammary tumors): did not develop tumors | in vitro antibacterial action (Escherichia coli): weak | in vitro antibacterial action (Staphylococcus aureus): weak | in vitro antibacterial action (Salmonello typhimurium): weak | in vitro antibacterial action [1]: weak | in vitro antibacterial action (Leuconostoc citrovorum): weak | effect on the eye following accidental injury (eye): soothing | time after which the pain had essentially disappeared [2]: 0.5 h | response of pruritis and acne ([3]; about 100-1000 mg per day): respond promptly | response of dermatological problems ([3]; diet supplemented): respond favorably | visual improvement with rosacea ([3]; in vivo): much slower | time before telangiectasis diminished ([3]; subject three, 500 mg daily): at least several weeks | day on which the 36-hour combination healing result was matched [4]: three | time to significant improvement in mental attitude (mood and depression; 1000 mg/kg body weight daily, chronically or terminally ill patient): Within 12 hours to 2 days | alertness (mood and depression; reported by individuals): increased alertness | depression frequency (mood and depression; reported by individuals): very infrequent depression | mood changes (mood and depression; reported by individuals): a plateau of mood changes | ability to concentrate (mood and depression; students): enhanced | time to relief of depression (mood and depression; subjects intermittently on antidepression medication, days with prior medication): within hours rather than days | binding to the surface of mucous membranes (mucous membranes): binds tightly

From patent US4863748A, “Dietary products and uses comprising methylsulfonylmethane” (priority 1986, dated 1989)
